This note sets out measurements from EPA's ToxRefDB 2.

One data set concerns dog. To be noted: Chronic toxicity, beagle, Oral, Feed, dose end: 104 week.
The test system of data set [1] is rabbit. As to conditions: Prenatal developmental toxicity study, new zealand white, Oral, Gavage/Intubation, dose end: 18 GD.
Data set [2] deals with rat. As to conditions: Prenatal developmental toxicity study, sprague dawley, Injection, Intraperitoneal, dose end: 15 GD.
Data set [3] deals with rat. To be noted: Sub-acute repeat dose toxicity, sprague dawley, Oral, Gavage/Intubation, dose end: 28 day.
For data set [4], the system named is rat. As to conditions: Prenatal developmental toxicity study, sprague dawley, Oral, Gavage/Intubation, dose end: 15 GD.
Data set [5] concerns rabbit. To be noted: Prenatal developmental toxicity study, new zealand white, Oral, Gavage/Intubation, dose end: 18 GD. This is another data set of the same source.
In data set [6] the test system is rat. To be noted: Prenatal developmental toxicity study, sprague dawley, Oral, Gavage/Intubation, dose end: 15 GD. The source holds these as a separate data set.
Data set [7] deals with rat. As to conditions: Multigenerational reproductive toxicity study, sprague dawley, Oral, Feed, dose end: 2 generation.
[8] abbreviates: group: cholinesterase, cholinesterase / cholinesterase / cholinesterase / plasma cholinesterase (che) + cholinesterase / cholinesterase / cholinesterase / brain ….
The mark [9] stands for this setting: group: systemic, systemic / clinical chemistry / alkaline phosphatase (alp/alk) / alkaline phosphatase (alp/alk).
Setting [10] is: group: cholinesterase, cholinesterase / cholinesterase / cholinesterase / brain (regional) cholinesterase (che) + cholinesterase / cholinesterase / cholinesterase….
Where [11] appears, read: group: developmental, developmental / developmental malformation / bone / [other].
Where [12] appears, read: group: maternal, systemic / in life observation / body weight / body weight + systemic / in life observation / body weight / body weight gain + systemic / in….
[13] abbreviates: group: developmental, systemic / in life observation / body weight / fetal weight.
Where [14] appears, read: group: maternal, systemic / in life observation / clinical signs / [other] + systemic / in life observation / clinical signs / altered breathing rate + ….
Where [15] appears, read: group: maternal, reproductive / reproductive performance / estrous cycle / abnormal.
Where [16] appears, read: group: systemic, systemic / clinical chemistry / alanine aminotransferase (alt/sgpt) / alanine aminotransferase (alt/sgpt) + systemic / clinical chemistry / ….
[17] abbreviates: group: systemic, systemic / organ weight / uterus / relative to body weight + systemic / organ weight / seminal vesicle / relative to body weight.
The mark [18] stands for this setting: group: developmental, developmental / developmental malformation / bone / enlarged fontanel + developmental / developmental malformation / bone / incomplete ….
Where [19] appears, read: group: maternal, systemic / in life observation / clinical signs / motor activity + systemic / in life observation / clinical signs / respiration (rales) + ….
[20] abbreviates: group: developmental, developmental / developmental malformation / bone / full supernumerary + developmental / developmental malformation / bone / incomplete ….
Setting [21] is: group: maternal, reproductive / reproductive performance / postimplantation loss / postimplantation loss + systemic / in life observation / clinical signs / ….
Setting [22] is: group: developmental, developmental / developmental malformation / bone / full supernumerary + developmental / developmental malformation / diaphragm / ….
The mark [23] stands for this setting: group: maternal, systemic / in life observation / body weight / body weight gain + systemic / in life observation / clinical signs / discharge on cageboard….
Setting [24] is: group: offspring, developmental / offspring survival late / lactation index / lactation index + developmental / offspring survival late / viability index / ….
Where [25] appears, read: group: parental, systemic / in life observation / body weight / body weight + systemic / in life observation / body weight / body weight gain.
[26] abbreviates: group: parental, systemic / in life observation / body weight / body weight + systemic / in life observation / body weight / body weight gain + systemic / in….

For `CCOP(=S)(NC(C)C)Oc1ccccc1C(=O)OC(C)C` (stereo unspecified) [Isofenphos], the LOAEL (as a rule, the lowest tested level that showed an adverse finding) in the data set with dog (group: cholinesterase, cholinesterase / cholinesterase / cholinesterase / plasma cholinesterase (che)) was 0.45 mg/kg/day; with dog (setting [9]), over 3.43 mg/kg/day; with rabbit [1] (setting [10]), 1.25 mg/kg/day; with rabbit [1] (setting [11]) it was over 7.5 mg/kg/day; in the data set on rabbit [1] (setting [12]) it was 7.5 mg/kg/day. The NEL in the data set with dog (setting [8]) is 0.09 mg/kg/day; with dog (setting [9]), 0.53 mg/kg/day; with rabbit [1] (setting [10]) it was 0.25 mg/kg/day; in the data set on rabbit [1] (setting [11]) it was 1.25 mg/kg/day; in the data set on rabbit [1] (setting [12]), 1.25 mg/kg/day. For the same molecule, the no observed adverse effect level (NOAEL) (in general, the highest dose or exposure tested at which no adverse effect was seen) with dog (setting [8]) was 0.09 mg/kg/day; in the data set with dog (setting [9]) it was at least 3.43 mg/kg/day; with rabbit [1] (setting [10]), 0.25 mg/kg/day; with rabbit [1] (setting [11]), at least 7.5 mg/kg/day; with rabbit [1] (setting [12]), 1.25 mg/kg/day. Further, the LEL amounted to 0.45 mg/kg/day with dog (group: cholinesterase, cholinesterase / cholinesterase / cholinesterase / plasma cholinesterase (che) + cholinesterase / cholinesterase / cholinesterase / …); 3.43 mg/kg/day in the data set on dog (setting [9]); 1.25 mg/kg/day in the data set with rabbit [1] (setting [10]); 7.5 mg/kg/day with rabbit [1] (setting [11]); 7.5 mg/kg/day in the data set on rabbit [1] (setting [12]).

In the data set with rat [2] (setting [13]), `CC(C)NCC(O)c1ccc(O)c(O)c1.Cl` (stereo unspecified) [Isoproterenol hydrochloride] yielded an LEL of 20 mg/kg/day, an LOAEL of over 80 mg/kg/day, an NEL of under 20 mg/kg/day and a no-observed-adverse-effect level (NOAEL) of at least 80 mg/kg/day. Besides, in the data set with rat [2] (setting [14]), the LEL turned out to be 20 mg/kg/day, the LOAEL was over 80 mg/kg/day, the NEL was under 20 mg/kg/day and the no-observed-adverse-effect level (NOAEL) is at least 80 mg/kg/day.

For `CC(=O)N1CCN(c2ccc(OC[C@@H]3CO[C@@](Cn4ccnc4)(c4ccc(Cl)cc4Cl)O3)cc2)CC1` [Ketoconazole], in the data set on rat [3] (setting [15]), the LEL was found to be 100 mg/kg/day, the lowest-observed-adverse-effect level (LOAEL) was over 100 mg/kg/day, the NEL was 25 mg/kg/day and the no observed adverse effect level (NOAEL) is at least 100 mg/kg/day. Besides, in the data set on rat [3] (setting [16]), the lowest-observed-adverse-effect level (LOAEL) was over 100 mg/kg/day and the no-observed-adverse-effect level (NOAEL) is at least 100 mg/kg/day. In the data set on rat [3] (setting [17]), the LEL was 6.25 mg/kg/day and the NEL was under 6.25 mg/kg/day.

As to `CC1COC(=O)O1` (stereo unspecified) [Propylene carbonate], in the data set on rat [4] (setting [18]), the LEL was 5000 mg/kg/day, the LOAEL was found to be 5000 mg/kg/day, the NEL was found to be 3000 mg/kg/day and the no observed adverse effect level (NOAEL) was determined as 3000 mg/kg/day. In the data set on rat [4] (setting [19]), the LEL stood at 3000 mg/kg/day, the lowest observed adverse effect level (LOAEL) turned out to be 3000 mg/kg/day, the NEL was determined as 1000 mg/kg/day and the no-observed-adverse-effect level (NOAEL) came out at 1000 mg/kg/day.

`CCCCOCCOC(=O)COc1nc(Cl)c(Cl)cc1Cl` [Triclopyr-butotyl]: the LEL with rabbit [5] (setting [20]) turned out to be 100 mg/kg/day; in the data set with rabbit [5] (setting [21]), 100 mg/kg/day; with rat [6] (setting [22]) it was 300 mg/kg/day; in the data set with rat [6] (group: maternal, systemic / in life observation / body weight / body weight gain) it was 30 mg/kg/day. Also, the lowest-observed-adverse-effect level (LOAEL) was 100 mg/kg/day in the data set with rabbit [5] (setting [20]), 100 mg/kg/day in the data set with rabbit [5] (setting [21]), over 300 mg/kg/day in the data set on rat [6] (setting [22]) and over 300 mg/kg/day in the data set with rat [6] (setting [23]). Further, the NEL was found to be 30 mg/kg/day in the data set on rabbit [5] (setting [20]), 30 mg/kg/day with rabbit [5] (setting [21]), 100 mg/kg/day in the data set on rat [6] (setting [22]) and 5 mg/kg/day in the data set with rat [6] (setting [23]). In addition, the NOAEL in the data set on rabbit [5] (setting [20]) was 30 mg/kg/day; in the data set on rabbit [5] (setting [21]) it was 30 mg/kg/day; in the data set on rat [6] (setting [22]), at least 300 mg/kg/day; in the data set on rat [6] (setting [23]) it was at least 300 mg/kg/day.

Turning to `CCOC(=O)C1CC(=O)C(=C(O)C2CC2)C(=O)C1` (stereo unspecified) [Trinexapac-ethyl], in the data set on rat [7] (setting [24]), the LEL was 1250 mg/kg/day and the NEL amounted to 592 mg/kg/day. In the data set with rat [7] (setting [25]), the LEL was determined as 592 mg/kg/day and the lowest-observed-adverse-effect level (LOAEL) was determined as 592 mg/kg/day. In the data set on rat [7] (setting [26]), the NEL turned out to be 59.1 mg/kg/day and the no-observed-adverse-effect level (NOAEL) came out at 59.1 mg/kg/day.
